The data set is described as follows: Absorbance spectra of cyanine dye stocks. The data set is classed as physicochemical. To be noted: free dye. The procedure:
Phycoerythrin conjugates: NGyS, NGy7 and Gy5 dye stocks are resuspended, their absorbances determined and their concentrations calculated. Phycoerythrin (PE) aliquots (2 nmoles) are treated in 0.5 M sodium carbonate pH 9.0 for 1.5 hr at room temperature with: a) 1:15, 1:30, 1:50 or 1:80 fold molar excesses of NGyS; b) 1:15 or 1:30 fold molar excesses of NGy7; or c) 1:30 or 1:50 molar excesses of Gy5. After conjugation, each reaction mixture is loaded on a PD-10 column and eluted with PBS. Fractions containing protein are pooled together for each mixture. Absorbance and fluorescence spectra of the products are obtained and energy transfer efficiency assessed.
Streptavidin conjugates: The concentration of a dye solution is determined through absorbance readings of appropriate dye dilutions. Streptavidin is treated with a molar excess (e.g., 20 fold excess) of dye in sodium carbonate buffer (pH 9.0) for one hour. After conjugation, the mixture is purified on a PD-10 column using PBS as an eluent buffer, and 0.5 mL fractions are collected. Major fractions containing the streptavidin-dye conjugate are pooled together and absorbance and emission spectra are acquired.

For `CCN1C(=CC=CC=CC=CC2=[N+](CCCCCC(=O)O)c3ccc(S(=O)(=O)O)cc3C2(C)C)C(C)(C)c2cc(S(=O)(=O)[O-])ccc21` [Cy7], the absorption maximum turned out to be 751.8 nm.

(Values after patent US20100291706A1, “DYE CONJUGATES AND METHODS OF USE” (Millipore Corporation, priority 2009, published 2010).)
